Laboratory results reported in US20260184712A1, “Heterocyclic Compounds as ENT Inhibitors and Compounds for Use in the Treatment of Cancers” (iTeos Belgium SA, priority 2022, published 2026).

Experiments:
[1] = target: T1, human ENT1 (Homo sapiens, UniProt Q99808); assay: ENT1 binding assay (competition with Sahenta-DY647 on JAR cells); conditions: competition with SAHENTA-DY647 binding; IC50 categorized; read-out: Binding Assay IC50
T1 construct: JAR cells expressing ENT1 were purchased from ATCC; host or cells: JAR cells
T1 sequence (Q99808 1-456): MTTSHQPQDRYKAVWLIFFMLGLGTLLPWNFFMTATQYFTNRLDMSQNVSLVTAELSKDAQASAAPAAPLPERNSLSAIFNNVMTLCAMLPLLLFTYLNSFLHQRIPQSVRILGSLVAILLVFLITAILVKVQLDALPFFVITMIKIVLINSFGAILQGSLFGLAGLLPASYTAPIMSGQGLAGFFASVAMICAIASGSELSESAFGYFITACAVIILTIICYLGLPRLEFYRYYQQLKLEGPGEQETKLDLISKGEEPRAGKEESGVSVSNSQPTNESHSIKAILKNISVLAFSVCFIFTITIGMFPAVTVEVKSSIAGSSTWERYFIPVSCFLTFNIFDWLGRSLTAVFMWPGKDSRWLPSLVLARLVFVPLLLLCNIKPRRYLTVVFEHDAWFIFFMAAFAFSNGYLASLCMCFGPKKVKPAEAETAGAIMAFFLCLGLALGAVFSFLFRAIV
Method in brief: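 Whole-cell competition on JAR cells (native ENT1): 50,000 cells pre-incubated 30 min at 4 °C with compound in HBSS/10 mM Hepes/0.1% BSA, then 100 nM Sahenta-DY647 added for 30 min at 4 °C. After washing, fluorescence (Ex 630/Em 670 nm) read; IC50 from sigmoidal fit, averaged as pIC50.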

[2] = system: stimulated primary human T cells; assay: T cell proliferation assay, Condition A (X-VIVO15); format: cell-based; conditions: Homo sapiens, T-cell, 96 h; Condition A: X-VIVO15 medium; anti-CD3/anti-CD28 beads, ATP, 4 days; CFSE-lo T cells
Procedure: (§1) The goal of this study was to determine the potency of ENT1 inhibitors by measuring the rescued proliferation of stimulated primary human T cells incubated in the presence of 100 uM Adenosine triphosphate (ATP), in baseline conditions (condition A) or in the presence of various proteins known to bind small molecules (condition B).
(§2) Venous blood from healthy volunteers, all of whom signed an informed consent approved by the Ethics Committee (FOR—UIC—BV-050-01-01 ICF_HBS_HD Version 5.0), was obtained by ImmuneHealth (Centre Hospitalier Universitaire Tivoli, La Louviere, Belgium). Mononuclear cells were collected by density gradient centrifugation, using SepMate-50 tubes (StemCell Technologies, Grenoble, France) and Lymphoprep (Stemcell Technologies) according to the manufacturer's instructions. CD3+ T cells were isolated by immunomagnetic negative selection, using the EasySep Human T Cell Isolation Kit (StemCell Technologies) as per the manufacturer's instructions. CD3+ T cells were stored in heat inactivated FBS (hiFBS; Gibco, ThermoFisher Scientific, Merelbeke, Belgium) and 10% DMSO in liquid nitrogen.
(§3) Purified human CD3+ T cells were thawed and washed once with RPMI1640 medium, UltraGlutamine (Lonza, Verviers, Belgium) containing 10% hiFBS. Cells were resuspended in PBS containing 10% hiFBS at 1×10^7 cells/ml. One volume of cells was combined with a matching volume of 2 μM CFSE solution in PBS, mixed well by pipetting, and incubated at room temperature for 5 minutes under rotation and protected from light. Excess CFSE was quenched by addition of PBS containing 10% hiFBS, and the cells were centrifuged (300×rcf, 7 minutes) and resuspended in X-VIVO15. Cells were again centrifuged and resuspended in X-VIVO15 for counting.
(§4) Cells were resuspended at 1.6×10^6 cells/mL in X-VIVO15 medium (Condition A) or X-VIVO15 medium containing 4% (v/v) HSA (Sigma-Aldrich, Diegem, Belgium) and 0.2% (v/v) ai-Acid Glycoprotein (Sigma-Aldrich, Diegem, Belgium) (Condition B).
(§5) […] of cell suspension (2×10^4 cells) was added to wells of sterile flat-bottom 384-well plates. Cells were activated by adding […] of anti-CD3 anti-CD28 coated microbeads (Dynabeads human T-activator CD3/CD28; Life Technologies, Paisley, UK) suspended in X-VIVO15 medium or X-VIVO15 medium containing 4% (v/v) HSA and 0.2% (v/v) ai-Acid Glycoprotein at a ratio of one microbead per two cells. Serial dilutions of the ENT1 inhibitors were conducted in X-VIVO15 medium and […] of the diluent was added to the wells. Cells were mixed by pipetting up and down and pre-incubated for 30 minutes in a 37° C. humidified tissue culture incubator with 5% CO2. After pre-incubation, cells were cultured in the presence or absence of ATP (Sigma-Aldrich) at a final concentration of […]. The final well volume was 50 μl in all cases. Experiments were performed in biological duplicates. Cells were mixed by pipetting up and down and incubated for 4 days in a 37° C. humidified tissue culture incubator with 5% CO2.
(§6) Samples were run on a BD LSR Fortessa FACS machine (BD FACSDiva Software v9.0.1). Data were analyzed using FlowJo (BD, v10.7.1). T cell proliferation was determined by measuring the frequency of ‘CFSE^lo’ (i.e. CFSE-diluted).
(§7) T cell proliferation data were analyzed using FlowJo software (Version 10.6.2). Dead cells and cellular debris were excluded on the basis of forward and side scatter profile and singlet cells were selected for further analysis.
(§8) T cell proliferation was determined based on the percent CFSE^lo total T cells for each condition. The data were plotted on the y-axis against log molar (M) concentration of ENT1 inhibitors on the x-axis in GraphPad Prism (version 9.0.0). IC50 and IC90 values were generated with the ‘log(agonist) vs. response—Find ECanything(F))’ function with F constrained to 50 or 90, respectively. pICF values were generated by taking the −logECF values.

[3] = system: stimulated primary human T cells; assay: T cell proliferation assay, Condition B (X-VIVO15, 2% HSA and 0.1% AAG); format: cell-based; conditions: Homo sapiens, T-cell, 96 h; Condition B: X-VIVO15 medium containing HSA and α1-Acid Glycoprotein; anti-CD3/anti-CD28 beads, ATP, 4 days; CFSE-lo T cells
Procedure: as §1
Condition B: X-VIVO15, 2% Human Serum Albumin (HSA) and 0.1% α-1-Acid Glycoprotein (AAG)
as §2, §3, §4, §5, §6, §7, §8

Structure (SMILES): C[C@H]1O[C@@H](n2c(NC3CCC(O)C3)nc3c(OCc4ccc([N+](=O)[O-])cc4)ncnc32)[C@H](O)[C@@H]1O (stereo partly drawn) [Compound 29]
- IC50 [1]: < 0.001 µM
- IC50 [2]: < 0.001 µM
- IC50 [3]: 0.001 to 0.02 µM

Structure (SMILES): Cc1nc(-c2ccc(CSc3ncnc4c3ncn4[C@@H]3O[C@H](C)[C@@H](O)[C@H]3O)cc2)no1 [Compound 186]
- IC50 [1]: 0.02 to 0.5 µM
- IC50 [2]: 0.001 to 0.02 µM
- IC50 [3]: > 0.5 µM

Structure (SMILES): C[C@H]1O[C@@H](n2cnc3c(/C=C/c4ccc([N+](=O)[O-])cc4)ncnc32)[C@H](O)[C@@H]1O [Compound 157]
- IC50 [1]: 0.001 to 0.02 µM
- IC50 [2]: < 0.001 µM
- IC50 [3]: 0.02 to 0.5 µM

Structure (SMILES): C[C@H]1O[C@@H](n2c(N[C@@H]3CCC(F)(F)C3)nc3c(OCc4ccc(C#N)cc4)ncnc32)[C@H](O)[C@@H]1O [Compound 81]
- IC50 [1]: < 0.001 µM
- IC50 [2]: < 0.001 µM
- IC50 [3]: 0.02 to 0.5 µM

Structure (SMILES): C[C@H]1O[C@@H](n2cnc3c(NCc4ccc([N+](=O)[O-])cc4)ncnc32)[C@H](O)[C@@H]1O [Compound 185]
- IC50 [1]: 0.02 to 0.5 µM
- IC50 [2]: 0.02 to 0.5 µM
- IC50 [3]: > 0.5 µM

Structure (SMILES): C[C@H]1O[C@@H](n2c(NC3CC(F)(F)C3)nc3c(OCc4ccc(C#N)cc4)ncnc32)[C@H](O)[C@@H]1O [Compound 49]
- IC50 [1]: 0.001 to 0.02 µM
- IC50 [2]: > 0.5 µM
- IC50 [3]: 0.02 to 0.5 µM

Structure (SMILES): NC(=O)COC[C@H]1O[C@@H](n2cnc3c(OCCc4ccc([N+](=O)[O-])cc4)ncnc32)[C@H](O)[C@@H]1O [Compound 199]
- IC50 [1]: 0.02 to 0.5 µM
- IC50 [2]: 0.02 to 0.5 µM
- IC50 [3]: > 0.5 µM

Structure (SMILES): C[C@H]1O[C@@H](n2cnc3c(OCCc4ccc(C#N)nn4)ncnc32)[C@H](O)[C@@H]1O [Compound 188]
- IC50 [1]: 0.02 to 0.5 µM
- IC50 [2]: 0.001 to 0.02 µM
- IC50 [3]: > 0.5 µM

Structure (SMILES): C[C@H]1O[C@@H](n2cnc3c(OCc4ccc(C#N)c(F)c4)ncnc32)[C@H](O)[C@@H]1O [Compound 174]
- IC50 [1]: 0.02 to 0.5 µM
- IC50 [2]: 0.001 to 0.02 µM
- IC50 [3]: > 0.5 µM

Structure (SMILES): O=[N+]([O-])c1ccc(CCOc2ncnc3c2ncn3[C@@H]2O[C@H](COCCO)[C@@H](O)[C@H]2O)cc1 [Compound 203]
- IC50 [1]: 0.02 to 0.5 µM
- IC50 [2]: 0.001 to 0.02 µM
- IC50 [3]: > 0.5 µM

Structure (SMILES): C[C@H]1O[C@@H](n2c(NCC(F)(F)F)nc3c(OCc4ccc([N+](=O)[O-])cc4)ncnc32)[C@H](O)[C@@H]1O [Compound 24]
- IC50 [1]: 0.001 to 0.02 µM
- IC50 [2]: 0.001 to 0.02 µM
- IC50 [3]: 0.02 to 0.5 µM

Structure (SMILES): CC(C)Nc1nc2c(N3CCc4ccc(C#N)cc4C3)ncnc2n1[C@@H]1O[C@H](C)[C@@H](O)[C@H]1O [Compound 154]
- IC50 [1]: 0.001 to 0.02 µM
- IC50 [2]: 0.001 to 0.02 µM
- IC50 [3]: > 0.5 µM

Structure (SMILES): C[C@H]1O[C@H](n2c(NCc3ccccc3)nc3c(OCc4ccc(OC(F)F)cc4)ncnc32)[C@H](O)[C@@H]1O [Compound 8]
- IC50 [1]: 0.001 to 0.02 µM
- IC50 [2]: < 0.001 µM
- IC50 [3]: 0.02 to 0.5 µM

Structure (SMILES): OC[C@H]1O[C@@H](n2c(NC3CCCC3)nc3c(SCc4ccccc4)ncnc32)[C@H](O)[C@@H]1O [Compound 158]
- IC50 [1]: 0.001 to 0.02 µM
- IC50 [2]: 0.001 to 0.02 µM
- IC50 [3]: 0.02 to 0.5 µM

Structure (SMILES): C[C@H]1O[C@@H](n2cnc3c(OCc4ccc(OC(F)F)cc4)nc(Cl)nc32)[C@H](O)[C@@H]1O [Compound 161]
- IC50 [1]: 0.001 to 0.02 µM
- IC50 [2]: 0.001 to 0.02 µM
- IC50 [3]: 0.02 to 0.5 µM
